Test results reported in the NIST ThermoML archive (doi:10.1021/je8001199).

What was measured:
[1] = xn = mol fraction of the nth substance listed; conditions: 200 kPa, Liquid
[2] = 200 kPa, Liquid

O [water] + NCCN
[1], x1 = 1
Conditions	mass density [kg/m3]
283.4 K	999.862
293.28 K	998.365
302.62 K	995.966
312.13 K	992.723
322.73 K	988.284
332.94 K	983.292
342.53 K	978.02
352.19 K	972.189

NCCN [ethane-1,2-diamine]
[2]
Conditions	mass density [kg/m3]
283.55 K	905.993
293.06 K	897.168
302.4 K	888.38
312.67 K	878.632
323.15 K	868.618
332.78 K	859.342
342.77 K	849.651
352.69 K	839.921

NCCN [ethane-1,2-diamine] + O
[1]
Conditions	mass density [kg/m3]
282.78 K, x2 = 0.3967	956.193
282.92 K, x2 = 0.2017	929.116
282.96 K, x2 = 0.301	942.071
283.11 K, x2 = 0.8936	1000.8
283.13 K, x2 = 0.1028	917.186
283.26 K, x2 = 0.5026	973.123
283.47 K, x2 = 0.7687	1005.97
283.55 K, x2 = 0	905.993
283.69 K, x2 = 0.6032	989.21
284.35 K, x2 = 0.7026	1001.48
292.62 K, x2 = 0.8936	996.472
292.67 K, x2 = 0.5026	964.635
292.85 K, x2 = 0.7026	994.548
292.93 K, x2 = 0.2017	919.983
292.93 K, x2 = 0.301	933.047
293.05 K, x2 = 0.1028	908.064
293.06 K, x2 = 0	897.168
293.09 K, x2 = 0.3967	946.948
293.24 K, x2 = 0.7687	998.968
293.29 K, x2 = 0.6032	980.744
301.58 K, x2 = 0.7026	987.238
302.39 K, x2 = 0.6032	972.594
302.4 K, x2 = 0	888.38
302.47 K, x2 = 0.7687	992.107
302.85 K, x2 = 0.3967	938.019
302.85 K, x2 = 0.5026	955.328
302.96 K, x2 = 0.301	923.821
302.97 K, x2 = 0.8936	991.261
302.99 K, x2 = 0.1028	898.81
303.1 K, x2 = 0.2017	910.588
311.86 K, x2 = 0.7026	978.33
312.55 K, x2 = 0.6032	963.3
312.59 K, x2 = 0.7687	984.36
312.67 K, x2 = 0	878.632
312.77 K, x2 = 0.5026	946.166
313 K, x2 = 0.301	914.5
313.02 K, x2 = 0.8936	985.719
313.11 K, x2 = 0.1028	889.308
313.14 K, x2 = 0.2017	901.221
313.98 K, x2 = 0.3967	927.719
322.34 K, x2 = 0.7687	976.647
322.65 K, x2 = 0.6032	953.972
322.72 K, x2 = 0.7026	968.66
322.86 K, x2 = 0.301	905.205
322.88 K, x2 = 0.5026	936.708
322.93 K, x2 = 0.2017	891.98
323.04 K, x2 = 0.1028	879.883
323.15 K, x2 = 0	868.618
323.15 K, x2 = 0.8936	979.69
323.75 K, x2 = 0.3967	918.543
332.41 K, x2 = 0.7026	960.004
332.77 K, x2 = 0.7687	968.171
332.78 K, x2 = 0	859.342
332.89 K, x2 = 0.5026	927.173
332.96 K, x2 = 0.301	895.557
333.02 K, x2 = 0.6032	944.229
333.1 K, x2 = 0.1028	870.208
333.11 K, x2 = 0.2017	882.167
333.38 K, x2 = 0.8936	973.322
333.53 K, x2 = 0.3967	909.227
342.6 K, x2 = 0.7687	959.937
342.64 K, x2 = 0.5026	917.789
342.77 K, x2 = 0	849.651
342.81 K, x2 = 0.3967	900.276
342.98 K, x2 = 0.301	885.862
343.04 K, x2 = 0.1028	860.531
343.08 K, x2 = 0.7026	950.214
343.09 K, x2 = 0.8936	966.519
343.13 K, x2 = 0.2017	872.529
352.14 K, x2 = 0.7687	951.742
352.69 K, x2 = 0	839.921
352.71 K, x2 = 0.5026	907.894
352.83 K, x2 = 0.301	876.2
352.9 K, x2 = 0.8936	959.494
353.02 K, x2 = 0.1028	850.773
353.03 K, x2 = 0.2017	862.815
353.34 K, x2 = 0.3967	889.949
353.48 K, x2 = 0.7026	940.524
